In series [1] the test system is E. coli strain MG1655 gene expression. In words: DNA microarray experiment with mitomycin C. Particulars: MMC 250 ng/ml, 40 min. The series is classed as cell-based. The method, then: The E. coli strain MG1655 (rph-1) was used. Cultures grown in LB at 37° C. overnight were diluted 1 to 250 into fresh LB and grown at 37° C. with aeration. Each subculture was split into two 100 ml cultures when the reading on a Klett-Sammerson calorimeter with the red filter reads 20 Klett units. MMC (Sigma, dissolved in ddH2O) at a final concentration of 250 ng/ml, a sub-lethal dose, was added to one of the split cultures. The other culture was a no addition control. Incubation at 37° C. continued for another 40 minutes, then cells were collected for preparing total RNA. The MMC treated culture and its control reached 60 and 55 Klett units, respectively after 40 minute treatment.
Total RNA purification, first-strand cDNA labeling, preparation of the E. coli whole genome high-density microarray chips, hybridization and data analysis were done as previously described (Wei et al. (2001) J. Bacteriol. 183: 545-556). Both cy3 and cy5 were used in probe labeling, and the hybridization experiments were repeated by swapping the fluorescence cy dyes between each pair of MMC treated sample and its blank control.
Ratios of expression in the mitomycin C treated samples vs. controls were calculated for all genes in the DNA array. Ratios greater than or equal to 2 were considered induced genes, while those with ratios less than 2 fold were considered uninduced. The known SOS genes (Kim et al., (1997) Proc Natl Acad Sci USA Dec. 9, 1997; 94(25):13792-7; Lomba et al., (1997) FEMS Microbiol Lett 156:119-122; Walker, G. C. (1996). In Escherichia coli and Salmonella: Cellular and Molecular Biology. ASM Press pp.1400-1416) fell into both the induced (Table 11) and uninduced classes (Table 12).

The subject of series [2] is luxCDABE gene fusions to MMC array genes. Kind of series: Lux-A Collection fusions tested for MMC induction. The series is classed as cell-based, E. coli. As for the experimental part: The Lux-A Collection of reporter gene fusions was examined for presence of fusions to the genes in Table 11. […] Each of these was tested for induction by MMC at several doses over a time course of 100 minutes.
As expected, the expression of the known SOS genes was elevated; however the expression of several was elevated less than 2-fold (Table 12) and as such were within a large group of 792 genes the expression of which was elevated by 20% or more. Most of these are likely due to artifacts in the array data rather than to actual biologically relevant responses. To test if strains carrying luxCDABE gene fusions would yield the expected positive result, the three gene fusions that were available in the Lux-A Collection of reporter gene fusions were tested for mitomycin C responses.

The subject of series [3] is yebF-luxCDABE fusion. Kind of series: inverted yebF-luxCDABE fusion induction by DNA damaging agents. The series is classed as cell-based, E. coli. The settings on record: yebF-luxCDABE fusion; mitomycin C, FIG. 2. From the text:
In this case, a divergent promoter to the purT gene was present in the chromosomal fragment and strains containing the backward yebF fusion produced light. Following isolation of plasmid DNA, XmaI digestion that releases the insert DNA from the vector, religation and transformation, 10% of the transformants produced light. […] The orientation of the inserted segment to yield a fusion of yebF to the luxCDABE operon was confirmed by DNA sequence analysis.
To test inverting of a chromosomal segment in a plasmid containing divergent promoters, the backward fusion to yebF was chosen. […] In this case, a divergent promoter to the purT gene was present in the chromosomal fragment and strains containing the backward yebF fusion produced light. Following XmaI digestion, religation and transformation, 10% of the transformants produced light. […] This was verified by DNA sequence analysis. Thus, inverting chromosomal segments containing divergent promoters is possible and is facilitated if the two promoters can be distinguished by their biological activity.

The subject of series [4] is SoxR/S regulon luxCDABE gene fusions. In words: SoxR/S regulon lux fusions: stress response in liquid LB. The series is classed as cell-based, E. coli. The settings on record: each of four strains; 1000-16 μg/ml, all seven concentrations. As for the experimental part:
Like the SOS and heat shock regulon fusions, these had basal light production greater than the promoterless parental plasmid indicating the presence of a promoter. Responsiveness of four of these strains to a known inducer of the SoxR/S regulon, methyl viologen, was tested at 1000, 500, 250, 125, 62, 31 and 16 μg/ml. […] Table 8 gives the response ratio for 250 μg/ml at 120 minutes of treatment for the four tested strains. Here again, the biologically appropriate response was observed.

Series [5] relates to ahpC-luxCDABE gene fusions in pcnB- host. The settings on record: both ahpC-lux fusions in pcnB- host; 0.004-0.00006%, all seven concentrations. The method, then: (§1) To test the stress responses, one or two single colonies of each selected strain were used to inoculate 5.0 ml of LB medium containing 150 μg/ml of ampicillin. These cultures were grown overnight at 37° C. then diluted by adding 50 μl or 100 μl of the overnight culture into 10.0 ml of fresh LB medium (without ampicillin) and grown with agitation at 37° C. until the culture was in exponential phase with readings on a Klett-Summerson colorimeter containing the red filter of between 10 and 40. These actively growing cultures were immediately used to initiate a stress response experiment by adding 50 μl of cultures to 50 μl of LB medium containing various concentrations of chemical in the wells a 96 well luminometer plate. This division of the actively growing culture at the time of chemical addition ensured identical populations were present when the stress was imposed. Light production was measured in a Dynex ML3000 luminometer at 37° C. The dimensionless units of light production, relative light units (RLU), are obtained by comparison with the light reading from an internal light-emitting diode.

For series [6], the system named is OxyR regulon ahpC-luxCDABE gene fusions. The settings on record: three ahpC-lux strains; 0.016-0.00025%. The method, then: as §1
To test if these strains would report on activation of the OxyR-controlled oxidative stress response, each was treated with hydrogen peroxide at 0.016, 0.008, 0.004, 0.002, 0.001, 0.0005, 0.00025%.

The subject of series [7] is SOS regulon luxCDABE gene fusions. In words: SOS regulon lux fusions: stress response in liquid LB. The series is classed as cell-based, E. coli. The method, then:
as §1
The ability of these promoter-luxCDABE fusions to report activation of the SOS stress response was tested using nalidixic acid, a known, potent chemical inducer. The final concentrations of nalidixic acid were 1, 5, 25, and 125 μg/ml for all but strain DPD2293, which was tested at 80, 40, 20, 10, 5, 2.5, and 1.25 μg/ml.
Specificity of responses was tested by measuring the effect of ethanol on these SOS regulon gene fusions.

The test system of series [8] is heat shock regulon luxCDABE gene fusions. In words: heat shock regulon lux fusions: stress response in liquid LB. The series is classed as cell-based, E. coli. Particulars: each of the six heat shock fusion strains; at least two of 5, 4, 3, 2 (v/v)% ethanol. As for the experimental part: as §1
Series [9] concerns clpB-luxCDABE gene fusion. Particulars: 38 min. An excerpt: Plasmid DNA was isolated from lux-a.pk043.d3, digested with restriction enzyme XmaI, and ligated with T4 DNA ligase. The ligation reaction was used to transform E. coli strain DPD 1675 by electroporation. Transformants were selected by ampicillin resistance. […] The response to ethanol treatment of two of these light producing transformants that putatively contain inverted chromosomal inserts, of lux-a.pk054.c3 (DPD2243) that contains a plasmid with the clpB promoter operably linked to the luxCDABE reporter and of the original lux-a.pk043.d3 were compared. Actively growing cultures at 37° C. in LB medium were treated with 4% ethanol and light production was quantitated at 37° C. using a microplate luminometer (Dynex ML3000). Table 17 summarizes the average bioluminescence of duplicate samples at 38 min after treatment.

SMILES strings stand for the structures. Like-named read-outs stand apart in the source and are kept apart here.

On to `CO[C@@]12[C@H](COC(N)=O)C3=C(C(=O)C(C)=C(N)C3=O)N1C[C@@H]1N[C@@H]12` [MMC, mitomycin C], for which the Fold induction/array expt in [1] (b0531) is 3.3; in series [1] (b0571 (ylcA)), 2.2; in series [1] (b1228) it was 2.5; in series [1] (b1847 (yebF)), 3.3; in series [1] (b2559), 2.0; in [1] (b2940) it was 2.3. The Fold induction/array expt in [1] (b3199) came out at 2.0; in series [1] (cspA) it was 2.9; in [1] (dniR), 2.1; in [1] (exbD), 2.2; in [1] (hslS), 6.7; in [1] (hslT), 4.0. The Fold induction/array expt is given as 2.3 in [1] (infA); 2.1 in series [1] (insA_4); 2.1 in series [1] (insB_1); 2.2 in series [1] (insB_2); 2.1 in series [1] (mioC); 2.2 in series [1] (secG). Moreover, the results for the Fold induction/array expt in series [1] (trkH) and in series [1] (xseA) were 2.1 and 2.0, respectively. The Fold induction/array experiment in series [1] (b1848 (yebG)) is given as 5.8; in series [1] (dinB (dinP)), 2.0; in series [1] (dinD) it was 2.2; in series [1] (dinF), 1.8; in [1] (dinG) it was 1.4; in series [1] (dinI), 6.7. Further, the Fold induction/array experiment stood at 1.3 in series [1] (himA); 3.6 in series [1] (lexA); 1.2 in series [1] (polB (dinA)); 3.0 in [1] (recA); 8.3 in series [1] (recN); 2.0 in [1] (ruvA). Moreover, the Fold induction/array experiment in series [1] (ruvB) is on record as 1.5; in series [1] (sulA), 5.8; in [1] (umuC) it was 2.1; in series [1] (umuD), 1.2; in [1] (uvrA), 2.3; in series [1] (uvrB) it was 2.1. In series [1] (uvrD), the Fold induction/array experiment came out at 1.4. In series [2] (four fusions to genes not previously known MMC inducible), the gene expression response entry was “no evidence of increased gene expression”. Moreover, in series [2] (four fusions to known SOS genes of Table 11, several doses, 100 min time course), the induction response entry is “induction of increased bioluminescence”. Also, the bioluminescence response result in [2] (three fusions to SOS genes of Table 12) was “induced increased bioluminescence”. For the same compound, the induction of bioluminescence result in series [3] is “induction by mitomycin C was demonstrated”.

For `C[n+]1ccc(-c2cc[n+](C)cc2)cc1` [Methyl viologen, methyl viologen], in series [4], the “bioluminescence vs untreated control” value was “induced increased bioluminescence”.

Take `OO` [H2O2, hydrogen peroxide]: the bioluminescence induction result in [5] is on record as “dramatically induced increased bioluminescence”; in series [6], “minimally induced”.

On to `CCO` [Ethanol], for which, in series [7] (DPD2249 dinP-lux, 3% ethanol, 40 min), the response ratio is recorded as 0.80. The “bioluminescence vs untreated control” value is “little to no increased bioluminescence” in series [7] (SOS regulon fusions, 5, 4, or 3% (v/v) ethanol) and “increased bioluminescence” in [8]. Also, the “Light production in LB + 4% ethanol” value in series [9] (Inverted lux-a.pk043.d3, second isolate) was 29.63 RLU; in [9] (inverted lux-a.pk043.d3, first isolate) it was 8.17 RLU.
